Columns and labels:
Cytochrome P450 2C9 = Cytochrome P450 2C9 (Homo sapiens, UniProt P11712); assay: Inhibition of hepatic CYP2C9 (unknown origin); assay type: ADME
[1] = target: T1, Steroid 17-alpha-hydroxylase/17,20 lyase (Homo sapiens, UniProt P05093); assay: Inhibition of human CYP17 expressed in African green monkey COS7 cells using 17-hydroxypregnenolone as substrate preincubated for 1 hr followed by substrate addition measured after 3 hrs by EIA; assay type: cell-based
T1 sequence (P05093 whole entry): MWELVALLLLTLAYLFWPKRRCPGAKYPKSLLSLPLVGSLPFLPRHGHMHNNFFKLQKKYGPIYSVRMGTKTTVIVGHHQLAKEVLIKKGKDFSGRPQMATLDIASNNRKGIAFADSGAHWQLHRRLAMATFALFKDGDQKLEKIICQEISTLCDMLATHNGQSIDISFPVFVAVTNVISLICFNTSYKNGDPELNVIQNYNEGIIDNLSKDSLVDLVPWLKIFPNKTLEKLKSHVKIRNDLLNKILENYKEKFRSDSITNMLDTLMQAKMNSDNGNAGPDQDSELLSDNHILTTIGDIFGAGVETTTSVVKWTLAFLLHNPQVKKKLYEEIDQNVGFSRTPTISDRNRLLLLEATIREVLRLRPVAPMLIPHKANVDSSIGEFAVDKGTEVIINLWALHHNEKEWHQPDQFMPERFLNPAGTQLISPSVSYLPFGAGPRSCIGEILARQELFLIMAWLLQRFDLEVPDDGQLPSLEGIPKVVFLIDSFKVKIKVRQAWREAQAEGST

[2] = target: T2, Cytochrome P450 11B2, mitochondrial (Homo sapiens, UniProt P19099); assay: Inhibition of human CYP11B2-CLE9 expressed in Chinese hamster V79 cells using 11-deoxycorticosterone as substrate preincubated for 1 hr followed by substrate addition measured for 3 hrs by HTRF assay; assay type: cell-based
T2 sequence (P19099 whole entry): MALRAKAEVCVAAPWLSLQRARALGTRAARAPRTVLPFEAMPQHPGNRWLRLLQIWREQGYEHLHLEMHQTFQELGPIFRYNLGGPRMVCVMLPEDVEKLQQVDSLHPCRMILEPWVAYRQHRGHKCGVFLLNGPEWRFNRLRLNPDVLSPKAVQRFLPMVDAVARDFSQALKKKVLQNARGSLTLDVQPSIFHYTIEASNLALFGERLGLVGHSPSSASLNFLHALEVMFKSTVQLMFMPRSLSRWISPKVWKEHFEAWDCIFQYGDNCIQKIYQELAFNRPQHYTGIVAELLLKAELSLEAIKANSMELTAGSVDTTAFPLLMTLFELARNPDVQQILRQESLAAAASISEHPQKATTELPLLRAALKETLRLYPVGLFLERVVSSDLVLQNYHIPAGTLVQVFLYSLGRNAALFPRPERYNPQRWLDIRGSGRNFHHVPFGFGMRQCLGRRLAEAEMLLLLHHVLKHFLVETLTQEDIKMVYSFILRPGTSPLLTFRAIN

Cytochrome P450 2D6 = Cytochrome P450 2D6 (Homo sapiens, UniProt P10635); assay: Inhibition of hepatic CYP2D6 (unknown origin); assay type: ADME
[3] = target: T3, Cytochrome P450 11B2, mitochondrial (Rattus norvegicus, UniProt P30099); assay: Inhibition of rat CYP11B2-1F4 expressed in Chinese hamster V79 cells using 11-deoxycorticosterone as substrate preincubated for 1 hr followed by substrate addition measured for 3 hrs by HTRF assay; assay type: cell-based
T3 sequence (P30099 whole entry): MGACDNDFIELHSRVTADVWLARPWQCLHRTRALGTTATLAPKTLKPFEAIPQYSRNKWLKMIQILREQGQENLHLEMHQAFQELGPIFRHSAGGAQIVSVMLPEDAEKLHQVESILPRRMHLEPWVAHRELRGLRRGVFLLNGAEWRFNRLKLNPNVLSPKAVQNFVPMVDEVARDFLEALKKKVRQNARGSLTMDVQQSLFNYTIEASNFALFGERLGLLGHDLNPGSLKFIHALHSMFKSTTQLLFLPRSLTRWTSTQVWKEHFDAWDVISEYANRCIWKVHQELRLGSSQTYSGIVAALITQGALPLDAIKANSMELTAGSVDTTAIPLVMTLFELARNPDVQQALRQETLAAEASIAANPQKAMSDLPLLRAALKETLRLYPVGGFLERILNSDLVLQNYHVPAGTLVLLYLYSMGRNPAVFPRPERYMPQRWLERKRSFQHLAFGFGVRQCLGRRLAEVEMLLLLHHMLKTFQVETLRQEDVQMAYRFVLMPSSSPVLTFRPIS

Steroid 21-hydroxylase = target: T4, Steroid 21-hydroxylase (Homo sapiens, UniProt P08686); assay: Inhibition of human CYP21 expressed in African green monkey COS7 cells using […] as substrate preincubated for 1 hr followed by substrate addition measured for 3 hrs by HTRF assay; assay type: cell-based
T4 sequence (P08686 whole entry): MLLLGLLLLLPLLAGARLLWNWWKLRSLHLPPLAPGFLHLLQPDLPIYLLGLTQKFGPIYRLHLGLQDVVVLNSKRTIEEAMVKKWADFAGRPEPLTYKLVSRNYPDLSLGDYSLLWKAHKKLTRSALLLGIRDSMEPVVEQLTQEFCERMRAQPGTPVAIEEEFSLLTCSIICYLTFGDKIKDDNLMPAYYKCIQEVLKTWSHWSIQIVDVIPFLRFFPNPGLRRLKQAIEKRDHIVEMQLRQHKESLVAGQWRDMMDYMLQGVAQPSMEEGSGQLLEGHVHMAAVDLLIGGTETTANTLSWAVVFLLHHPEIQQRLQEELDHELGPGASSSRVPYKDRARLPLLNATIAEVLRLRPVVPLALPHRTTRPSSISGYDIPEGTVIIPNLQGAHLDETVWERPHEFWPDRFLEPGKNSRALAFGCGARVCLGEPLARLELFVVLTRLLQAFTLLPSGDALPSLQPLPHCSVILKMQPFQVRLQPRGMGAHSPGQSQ

Cytochrome P450 3A4 = Cytochrome P450 3A4 (Homo sapiens, UniProt P08684); assay: Inhibition of hepatic CYP3A4 (unknown origin); assay type: ADME
[4] = Selectivity ratio of IC50 for human CYP11B1-8C7 expressed in Chinese hamster V79 cells to IC50 for human CYP11B2-CLE9 expressed in Chinese hamster V79 cells
Aromatase = target: T5, Aromatase (Homo sapiens, UniProt P11511); assay: Inhibition of CYP19 (unknown origin) using MFC as substrate and NADPH as cofactor preincubated for 10 mins with cofactor followed by substrate/enzyme addition measured after 30 mins
T5 sequence (P11511 whole entry): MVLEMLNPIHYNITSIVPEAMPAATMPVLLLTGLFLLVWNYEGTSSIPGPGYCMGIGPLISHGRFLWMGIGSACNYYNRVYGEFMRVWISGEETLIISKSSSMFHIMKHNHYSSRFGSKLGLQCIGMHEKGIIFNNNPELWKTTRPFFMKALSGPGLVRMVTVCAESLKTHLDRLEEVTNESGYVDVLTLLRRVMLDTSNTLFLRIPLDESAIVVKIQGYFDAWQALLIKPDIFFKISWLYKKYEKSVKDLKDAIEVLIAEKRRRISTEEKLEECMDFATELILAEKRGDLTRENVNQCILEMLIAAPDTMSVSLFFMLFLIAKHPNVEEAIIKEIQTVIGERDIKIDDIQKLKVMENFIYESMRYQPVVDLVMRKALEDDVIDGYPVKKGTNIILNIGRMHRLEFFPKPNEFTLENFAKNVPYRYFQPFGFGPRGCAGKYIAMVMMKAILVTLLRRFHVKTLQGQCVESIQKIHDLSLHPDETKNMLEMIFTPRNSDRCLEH

[5] = target: T6, Cytochrome P450 11B1, mitochondrial (Homo sapiens, UniProt P15538); assay: Inhibition of human CYP11B1-8C7 expressed in Chinese hamster V79 cells using 11-deoxycortisol as substrate preincubated for 1 hr followed by substrate addition measured for 3 hrs by HTRF assay; assay type: ADME, cell-based
T6 sequence (P15538 whole entry): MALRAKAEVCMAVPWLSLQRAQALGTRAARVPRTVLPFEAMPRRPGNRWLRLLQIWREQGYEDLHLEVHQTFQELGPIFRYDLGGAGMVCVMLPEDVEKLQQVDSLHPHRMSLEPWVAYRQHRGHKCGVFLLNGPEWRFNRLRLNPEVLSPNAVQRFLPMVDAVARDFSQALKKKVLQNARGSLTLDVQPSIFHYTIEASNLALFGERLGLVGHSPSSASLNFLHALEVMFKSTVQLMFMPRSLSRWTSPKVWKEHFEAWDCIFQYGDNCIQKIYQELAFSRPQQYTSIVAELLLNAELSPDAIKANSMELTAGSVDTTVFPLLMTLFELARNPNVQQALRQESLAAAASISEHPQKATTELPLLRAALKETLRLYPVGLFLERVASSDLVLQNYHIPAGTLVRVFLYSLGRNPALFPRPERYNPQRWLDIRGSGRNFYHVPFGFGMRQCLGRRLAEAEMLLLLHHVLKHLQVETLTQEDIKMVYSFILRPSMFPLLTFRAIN

Cytochrome P450 3A4, sequence (P08684 whole entry): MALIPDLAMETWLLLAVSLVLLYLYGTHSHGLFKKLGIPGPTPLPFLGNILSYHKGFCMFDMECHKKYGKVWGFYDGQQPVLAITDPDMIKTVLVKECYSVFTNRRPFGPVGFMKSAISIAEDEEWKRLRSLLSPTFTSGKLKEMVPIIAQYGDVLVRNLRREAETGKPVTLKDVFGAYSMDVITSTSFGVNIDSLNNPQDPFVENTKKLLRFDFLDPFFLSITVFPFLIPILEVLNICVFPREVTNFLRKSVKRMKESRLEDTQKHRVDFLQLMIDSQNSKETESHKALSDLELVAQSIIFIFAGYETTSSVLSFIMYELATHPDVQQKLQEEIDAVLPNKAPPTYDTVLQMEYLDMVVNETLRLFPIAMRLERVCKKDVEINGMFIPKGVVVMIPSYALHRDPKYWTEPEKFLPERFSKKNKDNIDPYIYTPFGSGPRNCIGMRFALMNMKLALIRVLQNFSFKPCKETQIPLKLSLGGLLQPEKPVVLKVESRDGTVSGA
Cytochrome P450 2D6, sequence (P10635 whole entry): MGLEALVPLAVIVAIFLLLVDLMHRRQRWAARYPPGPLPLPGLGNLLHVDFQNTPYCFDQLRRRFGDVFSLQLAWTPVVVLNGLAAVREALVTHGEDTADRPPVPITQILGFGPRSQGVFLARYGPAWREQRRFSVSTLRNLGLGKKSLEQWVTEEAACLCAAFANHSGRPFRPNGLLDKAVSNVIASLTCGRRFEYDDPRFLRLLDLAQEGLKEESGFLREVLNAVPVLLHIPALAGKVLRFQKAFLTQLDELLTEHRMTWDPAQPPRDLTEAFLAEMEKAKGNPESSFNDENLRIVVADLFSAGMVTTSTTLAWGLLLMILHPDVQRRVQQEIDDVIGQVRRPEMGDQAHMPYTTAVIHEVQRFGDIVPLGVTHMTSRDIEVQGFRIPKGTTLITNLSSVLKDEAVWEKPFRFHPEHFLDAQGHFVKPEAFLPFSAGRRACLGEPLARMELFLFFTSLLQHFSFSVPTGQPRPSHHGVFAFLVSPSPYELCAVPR
Cytochrome P450 2C9, sequence (P11712 whole entry): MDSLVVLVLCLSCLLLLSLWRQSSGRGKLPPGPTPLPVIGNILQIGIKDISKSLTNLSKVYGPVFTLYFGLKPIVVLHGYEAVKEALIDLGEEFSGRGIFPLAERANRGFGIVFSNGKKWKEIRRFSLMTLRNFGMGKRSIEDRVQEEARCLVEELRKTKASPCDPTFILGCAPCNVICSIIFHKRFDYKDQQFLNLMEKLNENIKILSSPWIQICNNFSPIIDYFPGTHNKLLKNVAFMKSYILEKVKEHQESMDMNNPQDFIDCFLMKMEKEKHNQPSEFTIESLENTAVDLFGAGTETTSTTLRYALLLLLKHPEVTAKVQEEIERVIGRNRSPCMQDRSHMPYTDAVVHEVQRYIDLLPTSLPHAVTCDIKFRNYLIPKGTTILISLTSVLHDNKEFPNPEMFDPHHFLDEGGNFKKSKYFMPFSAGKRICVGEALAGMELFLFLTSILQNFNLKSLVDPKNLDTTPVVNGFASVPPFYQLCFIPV

Row | SMILES | IC50 (Cytochrome P450 2C9) [µM] | IC50 [1] [µM] | IC50 [2] [µM] | IC50 (Cytochrome P450 2D6) [µM] | IC50 [3] [µM] | IC50 (Steroid 21-hydroxylase) [µM] | IC50 (Cytochrome P450 3A4) [µM] | Ratio IC50 [4] | IC50 (Aromatase) [µM] | IC50 [5] [µM]
1 | C[C@](O)(c1cncc(-n2nc(C(F)(F)F)c3ccccc32)c1)C(F)(F)F | 7.2 | > 10 | 0.077 to 0.0774 | > 50 | 0.077 | > 10 | > 50 | 11 | 5.4 | 0.856 to 0.86
2 | Cc1nn(-c2cncc(C(C)(C)O)c2)c2cccc(F)c12 | 4.7 | > 10 | 0.0013 to 0.00131 | > 50 | 0.0013 | > 10 | > 50 | 17 | 6.9 | 0.022 to 0.0223
